Results on 25 compounds are retold here after ChEMBL document CHEMBL1157345, “Evaluation of indazole-based compounds as a new class of potent KDR/VEGFR-2 inhibitors” (Bioorg Med Chem Lett, 2008).

Data set [1] concerns the target Vascular endothelial growth factor receptor 2 (Homo sapiens, UniProt P35968). The data set can be described thus: Inhibition of recombinant KDR by HTRF assay.
For data set [2], the system named is HUVEC. Briefly: Inhibition of bFGF-stimulated HUVEC cell proliferation treated before 2 hrs of bFGF challenge assessed after 72 hrs. Format: functional, cell-based. As to conditions: Homo sapiens.
In data set [3] the test system is HUVEC. The data set can be described thus: Inhibition of VEGF-stimulated HUVEC cell proliferation treated before 2 hrs of VEGF challenge assessed after 72 hrs. Format: functional, cell-based. As to conditions: Homo sapiens.
Data set [4] can be described thus: Half life in Sprague-Dawley rat at 1 mg/kg, iv or 10 mg/kg, po. Format: ADME, organism-based. As to conditions: in vivo.
Data set [5] in a line: Volume of distribution at steady state in Sprague-Dawley rat at 1 mg/kg, iv or 10 mg/kg, po. As to conditions: in vivo, read-out: Vdss. Format: ADME, organism-based.
The nature of data set [6]: Clearance in Sprague-Dawley rat at 1 mg/kg, iv or 10 mg/kg, po. Format: ADME, organism-based. As to conditions: in vivo.
Data set [7] is described as follows: AUC (0 to infinity) in Sprague-Dawley rat at 1 mg/kg, iv or 10 mg/kg, po. Format: ADME, organism-based. As to conditions: plasma.
The nature of data set [8]: Bioavailability in Sprague-Dawley rat at 1 mg/kg, iv or 10 mg/kg, po. In kind it is ADME, organism-based. As to conditions: in vivo.
The target in data set [9] is Hepatocyte growth factor receptor (Homo sapiens, UniProt P08581). Briefly: Inhibition of cMET.
Data set [10] deals with HEK293. The data set can be described thus: Inhibition of vascular permeability in mouse VEGF expressing HEK293 cells xenografted in po dosed athymic nude mouse. In kind it is functional, organism-based. As to conditions: Homo sapiens.
Data set [11] concerns the target T1, Aurora kinase A (Homo sapiens, UniProt O14965).
T1 sequence (O14965 whole entry): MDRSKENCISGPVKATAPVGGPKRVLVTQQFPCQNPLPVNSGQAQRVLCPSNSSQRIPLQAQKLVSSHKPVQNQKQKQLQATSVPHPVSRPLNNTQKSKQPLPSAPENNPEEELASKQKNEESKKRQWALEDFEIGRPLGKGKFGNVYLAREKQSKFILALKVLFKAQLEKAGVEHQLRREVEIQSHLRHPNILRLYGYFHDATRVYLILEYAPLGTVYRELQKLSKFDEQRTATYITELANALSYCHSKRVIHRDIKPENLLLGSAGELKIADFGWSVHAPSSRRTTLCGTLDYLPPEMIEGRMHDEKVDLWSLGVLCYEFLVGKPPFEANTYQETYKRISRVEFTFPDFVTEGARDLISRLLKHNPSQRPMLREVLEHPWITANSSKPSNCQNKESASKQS
Briefly: Inhibition of aurora 2 kinase.

In data set [12] the target is Aurora kinase B (Homo sapiens, UniProt Q96GD4). Briefly: Inhibition of aurora 1 kinase.
Data set [13] addresses Angiopoietin-1 receptor (Homo sapiens, UniProt Q02763). Briefly: Inhibition of Tie 2.
Data set [14] has as its system Mus musculus. The data set can be described thus: Plasma concentration in mouse VEGF expressing HEK293 cells xenografted in athymic nude mouse at 30 mg/kg, po. As to conditions: in vivo. The arrangement: dose 30 mg/kg, route oral. In kind it is ADME, organism-based.
In data set [15] the test system is Mus musculus. Briefly: Plasma concentration in mouse VEGF expressing HEK293 cells xenografted in athymic nude mouse at 10 mg/kg, po. As to conditions: in vivo. In kind it is ADME, organism-based. The arrangement: dose 10 mg/kg, route oral.
Data set [16] has as its target Mitogen-activated protein kinase 14 (Homo sapiens, UniProt Q16539). Briefly: Inhibition of p38alpha.
Data set [17] has as its target Phosphatidylinositol 4,5-bisphosphate 3-kinase catalytic subunit alpha isoform (Homo sapiens, UniProt P42336). The data set can be described thus: Inhibition of PI3K.

Sequence of Vascular endothelial growth factor receptor 2 (P35968 whole entry): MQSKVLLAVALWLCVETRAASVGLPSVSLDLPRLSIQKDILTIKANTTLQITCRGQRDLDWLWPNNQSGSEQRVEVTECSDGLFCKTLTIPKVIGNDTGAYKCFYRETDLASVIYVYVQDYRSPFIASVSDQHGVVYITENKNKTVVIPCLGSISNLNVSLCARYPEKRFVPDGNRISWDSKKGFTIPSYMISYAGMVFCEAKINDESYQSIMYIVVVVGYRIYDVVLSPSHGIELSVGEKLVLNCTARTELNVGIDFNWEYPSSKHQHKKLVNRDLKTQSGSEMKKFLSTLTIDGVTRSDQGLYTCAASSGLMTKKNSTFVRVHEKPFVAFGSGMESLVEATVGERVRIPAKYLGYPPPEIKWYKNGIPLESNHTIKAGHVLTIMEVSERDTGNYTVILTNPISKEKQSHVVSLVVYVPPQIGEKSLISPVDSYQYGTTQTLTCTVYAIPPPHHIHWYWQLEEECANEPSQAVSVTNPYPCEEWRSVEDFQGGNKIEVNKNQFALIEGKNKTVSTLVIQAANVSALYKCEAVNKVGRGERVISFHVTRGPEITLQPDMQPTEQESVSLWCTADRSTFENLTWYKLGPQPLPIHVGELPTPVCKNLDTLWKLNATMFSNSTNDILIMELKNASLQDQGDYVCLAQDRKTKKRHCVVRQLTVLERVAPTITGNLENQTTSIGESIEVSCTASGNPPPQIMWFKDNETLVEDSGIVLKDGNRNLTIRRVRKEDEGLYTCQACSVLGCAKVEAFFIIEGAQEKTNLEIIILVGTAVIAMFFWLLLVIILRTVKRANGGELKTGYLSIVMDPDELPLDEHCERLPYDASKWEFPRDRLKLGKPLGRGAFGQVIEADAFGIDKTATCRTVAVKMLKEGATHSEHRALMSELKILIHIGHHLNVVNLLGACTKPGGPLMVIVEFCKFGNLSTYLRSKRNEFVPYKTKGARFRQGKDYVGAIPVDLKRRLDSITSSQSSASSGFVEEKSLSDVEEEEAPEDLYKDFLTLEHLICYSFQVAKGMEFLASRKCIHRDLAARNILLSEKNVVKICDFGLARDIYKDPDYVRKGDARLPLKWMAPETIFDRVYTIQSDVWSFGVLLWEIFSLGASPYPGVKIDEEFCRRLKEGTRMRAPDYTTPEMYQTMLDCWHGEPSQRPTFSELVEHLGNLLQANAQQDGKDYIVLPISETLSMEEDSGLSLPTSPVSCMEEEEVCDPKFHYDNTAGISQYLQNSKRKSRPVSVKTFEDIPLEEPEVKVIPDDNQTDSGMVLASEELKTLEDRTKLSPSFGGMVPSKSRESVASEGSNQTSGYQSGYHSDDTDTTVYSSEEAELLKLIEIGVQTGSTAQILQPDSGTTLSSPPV
Sequence of Hepatocyte growth factor receptor (P08581 whole entry): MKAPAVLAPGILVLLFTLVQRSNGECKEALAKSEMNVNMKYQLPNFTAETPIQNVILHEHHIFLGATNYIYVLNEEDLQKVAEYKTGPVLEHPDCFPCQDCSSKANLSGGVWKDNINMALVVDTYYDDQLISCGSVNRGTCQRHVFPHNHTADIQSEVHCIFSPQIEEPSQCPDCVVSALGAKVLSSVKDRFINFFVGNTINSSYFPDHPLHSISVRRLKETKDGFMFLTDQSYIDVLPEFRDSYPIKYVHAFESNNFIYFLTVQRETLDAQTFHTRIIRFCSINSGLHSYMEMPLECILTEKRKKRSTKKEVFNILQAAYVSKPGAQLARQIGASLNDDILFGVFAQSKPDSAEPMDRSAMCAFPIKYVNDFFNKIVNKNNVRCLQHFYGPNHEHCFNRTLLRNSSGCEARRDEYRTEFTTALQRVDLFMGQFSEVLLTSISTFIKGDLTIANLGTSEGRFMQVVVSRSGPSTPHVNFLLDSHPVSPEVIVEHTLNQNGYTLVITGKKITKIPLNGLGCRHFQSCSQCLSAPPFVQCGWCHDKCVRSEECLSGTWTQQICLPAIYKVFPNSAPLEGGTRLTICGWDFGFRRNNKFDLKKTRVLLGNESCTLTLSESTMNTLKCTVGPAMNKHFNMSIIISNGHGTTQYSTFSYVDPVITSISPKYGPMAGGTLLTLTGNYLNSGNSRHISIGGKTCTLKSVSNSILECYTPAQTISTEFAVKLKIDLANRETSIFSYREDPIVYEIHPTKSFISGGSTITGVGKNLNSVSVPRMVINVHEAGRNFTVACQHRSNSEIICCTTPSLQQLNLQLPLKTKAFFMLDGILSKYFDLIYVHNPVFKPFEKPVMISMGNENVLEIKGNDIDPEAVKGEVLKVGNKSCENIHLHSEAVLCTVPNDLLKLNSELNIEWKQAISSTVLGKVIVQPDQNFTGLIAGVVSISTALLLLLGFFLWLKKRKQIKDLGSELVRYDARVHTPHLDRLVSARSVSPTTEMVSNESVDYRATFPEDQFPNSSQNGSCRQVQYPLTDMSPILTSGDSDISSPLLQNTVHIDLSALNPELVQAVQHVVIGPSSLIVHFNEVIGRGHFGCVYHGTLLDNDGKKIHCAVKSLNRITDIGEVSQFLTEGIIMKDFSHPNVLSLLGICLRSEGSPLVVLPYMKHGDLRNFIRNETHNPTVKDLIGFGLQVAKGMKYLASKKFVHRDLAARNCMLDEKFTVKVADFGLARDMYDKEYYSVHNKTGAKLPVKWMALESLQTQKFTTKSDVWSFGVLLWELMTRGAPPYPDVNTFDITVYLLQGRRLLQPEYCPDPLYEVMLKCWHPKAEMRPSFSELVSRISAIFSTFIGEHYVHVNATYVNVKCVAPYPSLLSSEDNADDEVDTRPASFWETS
Sequence of Angiopoietin-1 receptor (Q02763 whole entry): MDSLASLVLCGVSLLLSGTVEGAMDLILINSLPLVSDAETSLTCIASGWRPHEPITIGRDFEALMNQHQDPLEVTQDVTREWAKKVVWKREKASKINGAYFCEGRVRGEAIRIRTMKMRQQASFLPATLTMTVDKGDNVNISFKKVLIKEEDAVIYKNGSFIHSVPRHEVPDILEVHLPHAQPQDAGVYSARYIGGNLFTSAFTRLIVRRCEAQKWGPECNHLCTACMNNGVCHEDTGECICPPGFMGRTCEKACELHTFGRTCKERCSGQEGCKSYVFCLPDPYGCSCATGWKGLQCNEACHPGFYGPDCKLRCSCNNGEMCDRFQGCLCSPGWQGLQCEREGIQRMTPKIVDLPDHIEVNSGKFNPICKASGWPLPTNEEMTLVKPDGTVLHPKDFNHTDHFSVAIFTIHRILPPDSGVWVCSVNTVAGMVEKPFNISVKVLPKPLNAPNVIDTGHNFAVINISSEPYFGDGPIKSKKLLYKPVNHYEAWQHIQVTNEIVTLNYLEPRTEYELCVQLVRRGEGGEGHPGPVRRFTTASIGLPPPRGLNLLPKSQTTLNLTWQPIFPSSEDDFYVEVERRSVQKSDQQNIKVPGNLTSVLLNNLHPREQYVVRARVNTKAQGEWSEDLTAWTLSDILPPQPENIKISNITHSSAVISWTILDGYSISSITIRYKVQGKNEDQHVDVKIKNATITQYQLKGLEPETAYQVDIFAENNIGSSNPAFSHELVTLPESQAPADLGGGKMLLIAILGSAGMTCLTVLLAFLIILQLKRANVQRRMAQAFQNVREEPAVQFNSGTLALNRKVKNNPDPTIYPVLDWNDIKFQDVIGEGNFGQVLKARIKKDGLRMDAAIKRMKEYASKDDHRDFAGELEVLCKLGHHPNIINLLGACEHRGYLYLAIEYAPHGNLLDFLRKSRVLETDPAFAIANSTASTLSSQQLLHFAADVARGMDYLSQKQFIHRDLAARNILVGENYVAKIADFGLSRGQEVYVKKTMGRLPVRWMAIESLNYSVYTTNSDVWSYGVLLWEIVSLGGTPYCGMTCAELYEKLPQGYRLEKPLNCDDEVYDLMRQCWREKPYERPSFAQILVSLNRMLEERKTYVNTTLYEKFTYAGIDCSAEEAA
Sequence of Phosphatidylinositol 4,5-bisphosphate 3-kinase catalytic subunit alpha isoform (P42336 whole entry, canonical isoform): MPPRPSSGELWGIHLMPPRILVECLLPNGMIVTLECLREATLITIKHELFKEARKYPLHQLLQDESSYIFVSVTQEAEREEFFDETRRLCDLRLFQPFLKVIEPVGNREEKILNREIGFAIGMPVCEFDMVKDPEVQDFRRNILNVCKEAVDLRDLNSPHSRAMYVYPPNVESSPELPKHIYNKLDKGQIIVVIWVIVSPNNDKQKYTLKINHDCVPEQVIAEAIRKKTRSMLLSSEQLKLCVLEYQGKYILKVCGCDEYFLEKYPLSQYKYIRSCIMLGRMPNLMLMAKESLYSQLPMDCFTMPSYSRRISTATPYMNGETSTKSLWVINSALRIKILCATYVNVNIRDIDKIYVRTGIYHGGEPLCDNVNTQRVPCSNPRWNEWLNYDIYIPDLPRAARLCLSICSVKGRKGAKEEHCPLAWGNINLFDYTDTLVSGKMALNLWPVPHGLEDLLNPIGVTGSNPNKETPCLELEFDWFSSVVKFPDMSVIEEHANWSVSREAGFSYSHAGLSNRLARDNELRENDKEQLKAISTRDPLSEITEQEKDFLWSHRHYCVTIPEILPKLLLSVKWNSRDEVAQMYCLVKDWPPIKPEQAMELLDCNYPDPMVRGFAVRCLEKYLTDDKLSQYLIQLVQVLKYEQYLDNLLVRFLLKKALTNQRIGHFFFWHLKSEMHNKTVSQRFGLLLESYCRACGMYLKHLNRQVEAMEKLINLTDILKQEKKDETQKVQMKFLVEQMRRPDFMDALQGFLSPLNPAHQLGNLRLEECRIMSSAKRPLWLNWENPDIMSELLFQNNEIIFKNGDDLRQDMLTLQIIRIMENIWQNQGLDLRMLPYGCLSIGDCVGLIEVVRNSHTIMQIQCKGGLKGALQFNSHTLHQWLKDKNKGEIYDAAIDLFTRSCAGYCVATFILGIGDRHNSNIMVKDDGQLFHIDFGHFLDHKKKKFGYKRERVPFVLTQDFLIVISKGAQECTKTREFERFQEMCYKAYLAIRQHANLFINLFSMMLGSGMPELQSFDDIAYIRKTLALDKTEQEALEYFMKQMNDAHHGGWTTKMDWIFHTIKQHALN

`COc1cccc(Nc2nn(C)c3cc(Oc4ccnc5cc(OC)c(OC)cc45)ccc23)c1`: the results for the IC50 in [1] and in data set [2] were 230 nM and over 1000 nM, respectively.
In the case of `COc1cc2nccc(Oc3ccc4c(N)nn(C)c4c3)c2cc1OC`, the figures for the IC50 in [1] and in [2] were 1700 nM and over 1000 nM, respectively.
As for `COc1cc2nccc(Oc3ccc4c(NC(=O)Nc5ccc(C)cc5)nn(C)c4c3)c2cc1OC`, the IC50 (as a rule, the concentration that inhibits the measured activity by half) in data set [1] was 2 nM; in data set [3] it was 3 nM; in [2], over 1000 nM.
Turning to `COc1cc2nccc(Oc3ccc4c(NC(=O)Nc5ccccc5)nn(C)c4c3)c2cc1OC`, the half-life (usually how long it takes for the measured level to halve) in data set [4] was 4.3 h. Besides, the IC50 in data set [1] is 2 nM; in [3], 6 nM; in [2] it was over 1000 nM. For the same compound, the Vd in data set [5] was found to be 2 L/kg. Moreover, the clearance in data set [6] is 6.67 mL/min/kg. The AUC(0-inf) (as a rule, total exposure, with the tail of the curve extrapolated) in data set [7] was 121 ng·h/mL. Besides, the bioavailability (usually dose-corrected exposure relative to a reference, in per cent) in [8] was determined as 2%.
For `CCCNc1nn(C)c2cc(Oc3ccnc4cc(OC)c(OC)cc34)ccc12`, the IC50 in data set [1] is 1110 nM; in data set [2] it was over 1000 nM.
For `CCNc1nn(C)c2cc(Oc3ccnc4cc(OC)c(OC)cc34)ccc12`, in that order: 370 nM and over 1000 nM.
`COc1cc2nccc(Oc3ccc4c(NC(=O)Nc5ccc(C(F)(F)F)cc5Cl)nn(C)c4c3)c2cc1OC`: the values for the IC50 in [1], in data set [3] and in data set [2] were 8 nM, 1150 nM and over 1000 nM, respectively.
`COc1cc2nccc(Oc3ccc4c(NC(=O)c5cccc(C)c5)nn(C)c4c3)c2cc1OC`: the half-life in data set [4] is 2.7 h. For the same compound, the IC50 is 2 nM in data set [1], 2 nM in [3] and over 1000 nM in [2]. Besides, the Vd in [5] turned out to be 2.4 L/kg. In data set [6], this compound showed a clearance of 20 mL/min/kg. The same compound registered an AUC(0-inf) in data set [7] of 153 ng·h/mL. In addition, the bioavailability in data set [8] is 12%.
As to `COc1cc2nccc(Oc3ccc4c(NCc5ccccc5)nn(C)c4c3)c2cc1OC`, the values for the IC50 in data set [1] and in [2] were 60 nM and over 1000 nM, respectively.
Turning to `COc1cc2nccc(Oc3ccc4c(NC(=O)c5cc(C(F)(F)F)cc(C(F)(F)F)c5)nn(C)c4c3)c2cc1OC`, the IC50 is 2 nM in data set [1], 58 nM in data set [3] and over 1000 nM in data set [2].
`COc1ccc(NC(=O)Nc2nn(C)c3cc(Oc4ccnc5cc(OC)c(OC)cc45)ccc23)cc1`: the IC50 in [1] was 1 nM; in [3], 7 nM; in data set [2], over 1000 nM.
Take `COc1cc2nccc(Oc3ccc4c(NC(=O)c5cc(Cl)ccn5)nn(C)c4c3)c2cc1OC`: the figures for the IC50 in data set [1], in data set [3] and in [2] were 2 nM, 27 nM and over 1000 nM, respectively.
Take `CCCCNc1nn(C)c2cc(Oc3ccnc4cc(OC)c(OC)cc34)ccc12`: the IC50 in data set [1] is 800 nM; in [2] it was over 1000 nM.
Turning to `COc1cc2nccc(Oc3ccc4c(NC(=O)c5ccc(Cl)cc5)nn(C)c4c3)c2cc1OC`, the results for the IC50 in data set [1], in data set [3] and in data set [2] were 5 nM, 61 nM and over 1000 nM, respectively.
For the compound `COc1ccccc1Nc1cccc2cc(Oc3ccnc4cc(OC)c(OC)cc34)ccc12`, in data set [1], the IC50 was 1 nM.
`COc1cc2nccc(Oc3ccc4c(NC(=O)c5ccccc5Cl)nn(C)c4c3)c2cc1OC`: the results for the IC50 in data set [1] and in data set [2] were 8 nM and over 1000 nM, respectively.
Turning to `COc1cc2nccc(Oc3ccc4c(Nc5ccc(C(F)(F)F)cc5)nn(C)c4c3)c2cc1OC`, the IC50 in data set [1] was 70 nM; in [2], over 1000 nM.
With `COc1cc2nccc(Oc3ccc4c(NC(=O)c5ccc(C(F)(F)F)cc5)nn(C)c4c3)c2cc1OC`, the IC50 in [1] is 3 nM; in [3], 79 nM; in [2], over 1000 nM.
On to `COc1cc2nccc(Oc3ccc4c(NC(=O)C5CC5)nn(C)c4c3)c2cc1OC`, for which the half-inhibitory concentration (IC50) in [1] was 344 nM; in data set [2], over 1000 nM.
For `COc1ccc(Nc2nn(C)c3cc(Oc4ccnc5cc(OC)c(OC)cc45)ccc23)cc1`, in that order: 160 nM and over 1000 nM.
For `COc1cc2nccc(Oc3ccc4c(Nc5ccccc5)nn(C)c4c3)c2cc1OC`, in that order: 270 nM and over 1000 nM.
Turning to `COc1cc2nccc(Oc3ccc4c(Nc5ccccc5)cccc4c3)c2cc1OC`, the IC50 in data set [1] stood at 2 nM.
Turning to `COc1ccc(C(=O)Nc2nn(C)c3cc(Oc4ccnc5cc(OC)c(OC)cc45)ccc23)cc1`, the IC50 in [1] was 3 nM; in data set [3] it was 32 nM; in data set [2], over 1000 nM.
In turn, `COc1cc2nccc(Oc3ccc4c(NC(=O)c5ccc(F)c(Cl)c5)nn(C)c4c3)c2cc1OC` had a half-life in data set [4] of 1.5 h. The IC50 in data set [1] was 3 nM; in [3] it was 9 nM; in data set [2] it was over 1000 nM. Also, in data set [5], the Vd came to 2.1 L/kg. This compound also gave a clearance in [6] of 21.7 mL/min/kg.
Regarding `COc1cc2nccc(Oc3ccc4c(NC(=O)c5cccc(C(F)(F)F)c5)nn(C)c4c3)c2cc1OC`, the IC50 in data set [9] amounted to 3320 nM; in data set [11], 764 nM; in data set [12], 45 nM; in data set [13] it was 121 nM; in data set [1] it was 1 nM; in data set [3], 9 nM. Besides, the IC50 is over 1000 nM in data set [2], 1650 nM in data set [16] and 3250 nM in data set [17]. For the same compound, the half-life in data set [4] was 2.2 h. The Activity entry in data set [10] is “Dose-dependent effect”. For the same compound, the Cp in data set [14] is 347 ng/mL; in [15] it was 181 ng/mL. For the same compound, the Vd in data set [5] is 1.4 L/kg. This compound had a clearance in data set [6] of 11.7 mL/min/kg. The compound also came in with an AUC(0-inf) in data set [7] of 1530 ng·h/mL. Further, in data set [8], the bioavailability came out at 46%.
